Reference: patent US4880817A, “O-functionalized derivatives of substituted isoquinolin-3-ols having cardiotonic and/or phosphodiesterase fraction III inhibiting properties and/or renal vasodilating properties” (Ortho Pharmaceutical Corporation, priority 1987, dated 1989)
pIC50: −log10 of the molar value. Like-named read-outs stand apart in the source and are kept apart here.

Tests used:
[1] = tested on: platelet aggregation; details: reported in U.S. Pat. No. 3,870,721; cited from earlier work
[2] = tested on: adult mongrel dogs; assay: Renal vasodilating activity in anesthetized dogs; format: in vivo, mongrel dog; details: Canis lupus familiaris
Description: Goldberg et al., J. Pharmacol. Exp. Ther., 163, 188 (1968), performed an investigation of the structural requirements for dopamine-like renal vasodilation of phenethylamines and apomorphine. The following procedure is a variation of the assay described in that report.
Adult mongrel dogs were anesthetized and surgically prepared for electromagnetic measurement of renal artery blood flow. A carotid artery was cannulated for measuring arterial blood pressure and drugs were administered intravenously or intraarterially (via the renal artery). Heart rate was monitored with a cardiotachometer. Renal vascular resistance was calculated as the ratio of mean arterial blood pressure to renal artery blood flow. Dopamine was infused intravenously at 3 μg/kg/min for ten minutes (at an infusion rate of about 1 ml/min) to determine responsiveness of each dog to renal dopamine receptor stimulation. Cumulative dose-response data were obtained by infusing a compound of this invention at progressively increasing (usually three-fold) infusion rates, each dose being infused for five minutes. The maximum percent change from pre-drug control in renal artery blood flow (or in renal vascular resistance) was determined for each infusion dose.
RBF, RVR, MABP, and HR values are percent changes in renal blood flow, renal vascular resistance, mean arterial blood pressure, and heart rate, respectively, relative to control values.

[3] = molecular target: T1, Phosphodiesterase Fraction III (Canis lupus familiaris, UniProt A0A8I3NYE0); assay: Inhibition of phosphodiesterase fraction III activity; format: biochemical, canine
T1 construct: The fraction III enzyme was isolated as an isomzyme from the crude canine heart homogenate; from tissue; host or cells: canine heart (crude homogenate, ion exchange chromatography)
T1 sequence (A0A8I3NYE0 1-1135): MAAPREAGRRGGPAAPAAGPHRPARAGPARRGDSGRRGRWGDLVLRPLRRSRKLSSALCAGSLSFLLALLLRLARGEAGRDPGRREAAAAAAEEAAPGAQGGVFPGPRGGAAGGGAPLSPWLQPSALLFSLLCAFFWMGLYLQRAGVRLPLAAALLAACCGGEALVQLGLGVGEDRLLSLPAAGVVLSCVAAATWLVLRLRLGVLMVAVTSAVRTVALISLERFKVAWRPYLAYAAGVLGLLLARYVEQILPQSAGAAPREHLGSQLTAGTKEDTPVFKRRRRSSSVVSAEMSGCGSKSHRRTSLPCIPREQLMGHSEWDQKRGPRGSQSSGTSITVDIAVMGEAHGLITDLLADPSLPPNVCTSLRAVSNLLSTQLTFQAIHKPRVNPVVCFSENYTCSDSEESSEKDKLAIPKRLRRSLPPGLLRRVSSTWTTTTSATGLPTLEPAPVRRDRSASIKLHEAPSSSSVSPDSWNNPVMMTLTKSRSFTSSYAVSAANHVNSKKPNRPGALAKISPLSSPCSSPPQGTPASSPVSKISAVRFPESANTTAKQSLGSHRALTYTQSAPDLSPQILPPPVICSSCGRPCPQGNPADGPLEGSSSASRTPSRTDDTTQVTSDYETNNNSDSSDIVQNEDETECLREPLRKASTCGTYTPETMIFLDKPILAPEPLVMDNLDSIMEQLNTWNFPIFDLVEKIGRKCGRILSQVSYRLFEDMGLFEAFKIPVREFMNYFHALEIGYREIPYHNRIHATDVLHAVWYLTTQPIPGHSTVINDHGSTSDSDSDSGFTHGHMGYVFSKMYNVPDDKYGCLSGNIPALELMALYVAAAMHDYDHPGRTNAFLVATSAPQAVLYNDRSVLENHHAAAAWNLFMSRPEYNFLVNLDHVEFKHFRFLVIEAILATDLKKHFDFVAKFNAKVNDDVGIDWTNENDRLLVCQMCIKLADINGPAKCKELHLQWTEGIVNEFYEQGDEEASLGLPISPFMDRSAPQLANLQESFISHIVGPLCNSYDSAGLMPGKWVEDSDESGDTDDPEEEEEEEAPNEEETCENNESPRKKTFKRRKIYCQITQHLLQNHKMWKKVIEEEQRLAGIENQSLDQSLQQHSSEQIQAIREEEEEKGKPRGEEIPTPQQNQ
Description: Thompson et al. described a cyclic nucleotide phosphodiesterase assay in Advances in Cyclic Nucleotide Research, Brooker et al., eds., 10, 69-92 (1979). The following procedure is based on that published assay and measures the ability of compounds to inhibit cyclic nucleotide phosphodiesterase which is an enzyme that converts either cyclic AMP or cyclic GMP to the noncyclized AMP or GMP, respectively.
Compounds were tested at various concentrations in the presence of cyclic AMP (0.10-1.0 μM containing 0.2 microCuries ^3 H-cyclic AMP), cyclic nucleotide phosphodiesterase, and 0.05M Tris-Cl buffer (pH 7.4, containing 5 mM magnesium chloride). After a specified time, the reaction was stopped by heating to 100° C. for 1 minute. After cooling, 0.10 ml of a solution containing snake venom (1 mg/ml) was added, and the reaction was allowed to proceed for 30 min. Termination of this reaction was accomplished by the addition of 1.0 ml of 33 percent DOWEX AGl×8 resin slurry (Dow Chemical Co., Midland, MI) to separate the product from the unconverted substrate. An aliquot was removed from the supernatant and analyzed by liquid scintillation spectrometry.
The fraction III enzyme was isolated as an isomzyme from the crude canine heart homogenate by ion exchange chromatography. The enzyme activity was designated fraction III since it is the third and last phosphodiesterase activity to be eluted from the chromatographic column. The fraction III enzyme has a relatively high affinity and specificity for the cyclic AMP.
Data are presented as the IC50 which is the concentration (in micromoles) of a compound that was required to inhibit 50 percent of the cyclic nucleotide phosphodiesterase activity.

[4] = tested on: adult mongrel dogs; assay: Acute in vivo cardiotonic activity in anesthetized dogs; design: species or system mongrel dog; details: Canis lupus familiaris, dose 1.87 mpk, iv, relative to controls
Description: The acute in vivo cardiotonic activity of compounds prepared according to the present invention was determined according to a modification of the procedure described by Alousi et al., Circ.
In particular, adult mongrel dogs were anesthetized with sodium pentobarbital and were artificially respired. Arterial pressure was monitored via a femoral artery, and the pulse pressure was used to trigger a cardiotachometer for heart rate. Left ventricular pressure was determined with a Millar catheter, and dP/dT (the change in ventricular pressure with time) was derived. Cardiac output was determined by measuring ascending aortic blood flow with an electromagnetic flow probe, and myocardial contractile force was measured with a Walton Brodie strain gauge sutured to the right ventricle. Lead II EKG was also recorded.
A standard dose (10 μg/kg/min) of dopamine was administered to assess myocardial responsiveness.
Compounds of the invention were administered by intravenous infusion and the effects on cardiovascular parameters were determined.

[5] = dose 6.2 mpk, relative to controls, read-out: HR: percent change in heart rate
[6] = dose 6.2 mpk, relative to controls, read-out: MABP: percent change in mean arterial blood pressure
[7] = dose 6.2 mpk, relative to controls, read-out: RBF: percent change in renal blood flow
[8] = dose 6.2 mpk, relative to controls, read-out: RVR: percent change in renal vascular resistance
[9] = cyclic AMP 0.10-1.0 μM, pH 7.4, enzyme from canine heart homogenate, read-out: IC50
[10] = read-out: CF: percent change in cardiac force
[11] = read-out: HR: percent change in heart rate
[12] = read-out: MABP: percent change in mean arterial blood pressure
[13] = read-out: dP/dT: maximum percent change in left ventricular pressure with time
[14] = read-out: HR: percent change in heart rate, dose 6.2 mpk, relative to controls
[15] = read-out: MABP: percent change in mean arterial blood pressure, dose 6.2 mpk, relative to controls
[16] = read-out: RBF: percent change in renal blood flow, dose 6.2 mpk, relative to controls
[17] = read-out: RVR: percent change in renal vascular resistance, dose 6.2 mpk, relative to controls
[18] = read-out: HR: percent change in heart rate, dose 1.2 mpk, relative to controls
[19] = read-out: MABP: percent change in mean arterial blood pressure, dose 1.2 mpk, relative to controls
[20] = read-out: RBF: percent change in renal blood flow, dose 1.2 mpk, relative to controls
[21] = read-out: RVR: percent change in renal vascular resistance, dose 1.2 mpk, relative to controls

CC(=O)NC1C(=O)NC(=O)c2ccccc21 (centres unmarked) [4-acetamido-1,2,3,4-tetrahydro 1,3-isoquinolinedione]
inhibition of platelet aggregation [1]: inhibit platelet aggregation

CCOc1cc2c(C)nc(OC(C)=O)c([N+](=O)[O-])c2cc1OC [Cmpd 3]
change in vivo at 6.2 mg/kg [2, 5]: 2% | change in vivo at 6.2 mg/kg [2, 6]: -6% | change in vivo at 6.2 mg/kg [2, 7]: 61% | change in vivo at 6.2 mg/kg [2, 8]: -41% | pIC50 [3, 9]: 5.22

CCOc1cc2c(C)nc(OC(=O)C(C)(C)C)c([N+](=O)[O-])c2cc1OC [Cmpd 9]
change in vivo at 6.2 mg/kg [2, 5]: 0% | change in vivo at 6.2 mg/kg [2, 6]: -26% | change in vivo at 6.2 mg/kg [2, 7]: 43% | change in vivo at 6.2 mg/kg [2, 8]: -48% | pIC50 [3, 9]: 4.00

CCOc1cc2c(C)nc(OC(=O)N(C)C)c([N+](=O)[O-])c2cc1OC [Cmpd 10]
change in vivo at 1.87 mg/kg [4, 10]: 70% | change in vivo at 1.87 mg/kg [4, 11]: -6% | change in vivo at 1.87 mg/kg [4, 12]: 18% | change in vivo at 1.87 mg/kg [4, 13]: 91% | change in vivo at 6.2 mg/kg [2, 14]: 10% | change in vivo at 6.2 mg/kg [2, 15]: -12% | change in vivo at 6.2 mg/kg [2, 16]: 46% | change in vivo at 6.2 mg/kg [2, 17]: -39% | pIC50 [3]: 4.35

CCOc1cc2c(C)nc(OC(=O)c3ccc(OC)cc3)c([N+](=O)[O-])c2cc1OC [Cmpd 11]
change in vivo at 1.87 mg/kg [4, 10]: 126% | change in vivo at 1.87 mg/kg [4, 11]: 25% | change in vivo at 1.87 mg/kg [4, 12]: -17% | change in vivo at 1.87 mg/kg [4, 13]: 47% | pIC50 [3, 9]: 4.52

COC(=O)c1c(OC(C)C)nc(C)c2cc(OC)c(OC)cc12 [Cmpd 18]
pIC50 [3, 9]: 3.65

CCOc1nc(C)c2cc(OC)c(OC)cc2c1C(=O)OC [Cmpd 19, 4-Carbomethoxy-3-ethoxy-6,7-dimethoxy-1-methylisoquinoline]
pIC50 [3, 9]: 4.38

CCOc1cc2c([N+](=O)[O-])c(OC(C)=O)nc(C)c2cc1OC [Cmpd 21]
change in vivo at 6.2 mg/kg [2, 5]: 38% | change in vivo at 6.2 mg/kg [2, 6]: 3% | change in vivo at 6.2 mg/kg [2, 7]: 40% | change in vivo at 6.2 mg/kg [2, 8]: -25% | pIC50 [3, 9]: 4.85

CCCCOc1cc2c(C)nc(OC(C)=O)c([N+](=O)[O-])c2cc1OC [Cmpd 22]
change in vivo at 1.87 mg/kg [4, 10]: 43% | change in vivo at 1.87 mg/kg [4, 11]: 2% | change in vivo at 1.87 mg/kg [4, 12]: -23% | change in vivo at 1.87 mg/kg [4, 13]: 68% | change in vivo at 6.2 mg/kg [2, 5]: 25% | change in vivo at 6.2 mg/kg [2, 6]: -12% | change in vivo at 6.2 mg/kg [2, 7]: 11% | change in vivo at 6.2 mg/kg [2, 8]: -22% | pIC50 [3, 9]: 5.46

CCOc1cc2c(C)nc(OS(=O)(=O)N(C)C)c([N+](=O)[O-])c2cc1OC [Cmpd 26]
change in vivo at 6.2 mg/kg [2, 5]: 0% | change in vivo at 6.2 mg/kg [2, 6]: 0% | change in vivo at 6.2 mg/kg [2, 7]: 7% | change in vivo at 6.2 mg/kg [2, 8]: -8% | pIC50 [3, 9]: 4.69

COc1cc2c(C)nc(OC(=O)N(c3ccccc3)c3ccccc3)c([N+](=O)[O-])c2cc1OC [Cmpd 34]
change in vivo at 6.2 mg/kg [2, 14]: 21% | change in vivo at 6.2 mg/kg [2, 15]: -10% | change in vivo at 6.2 mg/kg [2, 16]: 37% | change in vivo at 6.2 mg/kg [2, 17]: -35% | pIC50 [3]: 4.46

COc1cc2c(C)nc(OS(=O)(=O)N(C)C)c(N)c2cc1OC [Cmpd 43]
pIC50 [3, 9]: 4.47

CCOc1cc2c(C)nc(OC(=O)N(CC)CC)c(N)c2cc1OC [Cmpd 44]
pIC50 [3, 9]: 3.74

COc1cc2c(C)nc(OS(=O)(=O)N(C)C)c(N)c2cc1OC [Cmpd 63]
pIC50 [3, 9]: 3.73

COc1cc2c(C)nc(OC(=O)N3CCNCC3)c([N+](=O)[O-])c2cc1OC [Cmpd 70, 6,7-Dimethoxy-1-methyl-4-nitro-3-(1-piperazinyl)carbonyloxyisoquinoline]
change in vivo at 1.2 mg/kg [2, 18]: 20% | change in vivo at 1.2 mg/kg [2, 19]: -1% | change in vivo at 1.2 mg/kg [2, 20]: 26% | change in vivo at 1.2 mg/kg [2, 21]: -19% | pIC50 [3]: 4.11

CCOc1cc2c(C)nc(OC(=O)N3CCNCC3)c([N+](=O)[O-])c2cc1OC [Cmpd 71]
pIC50 [3]: 4.66

C=CCNC(=O)Nc1c(OC(=O)N(CC)CC)nc(C)c2cc(OCC)c(OC)cc12 [Cmpd 74]
change in vivo at 1.2 mg/kg [2, 18]: -16% | change in vivo at 1.2 mg/kg [2, 19]: -2% | change in vivo at 1.2 mg/kg [2, 20]: 15% | change in vivo at 1.2 mg/kg [2, 21]: -14% | pIC50 [3]: 3.94
